# Patent publication US7232690B1, “Method and device for detecting and isolating pharmacological compounds being contained in substance mixtures” (LTS Lohmann Therapie-Systeme AG, priority 1999, dated 2007)
# Like-named read-outs stand apart in the source and are kept apart here.
# Key:
# Thrombin [1] = biological target: T1, Thrombin (Homo sapiens, UniProt P00734); assay: Thrombin inhibition constant (Ki); assay type: biochemical; conditions: read-out: Ki [μmol/l] Thrombin
# Trypsin = biological target: T2, Trypsin (Bos taurus, UniProt P00760); assay: Trypsin inhibition constant (Ki); assay type: biochemical; conditions: read-out: Ki [μmol/l] Trypsin
# T2 sequence (P00760 24-246): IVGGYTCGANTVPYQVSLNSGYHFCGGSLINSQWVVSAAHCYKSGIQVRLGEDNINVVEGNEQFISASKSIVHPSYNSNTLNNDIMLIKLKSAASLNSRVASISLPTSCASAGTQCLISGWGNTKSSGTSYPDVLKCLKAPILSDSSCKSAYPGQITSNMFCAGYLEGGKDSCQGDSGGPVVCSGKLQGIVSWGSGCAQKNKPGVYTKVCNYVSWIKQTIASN
# serine protease trypsin = assay: Ultrafiltration target-binding test of non-equimolar amidinophenylalanine mixture with trypsin (Example 2); conditions: applied 6 8.4, 7 41.25, 10 2.5 μmol/l
# Description: (§1) Incubation of the substance library and the inhibitor with thrombin took place at room temperature within 1 hour; solvent: 0.9% of NaCl in H2O. The separation of the protein-ligand complexes formed was accomplished by ultrafiltration (centrifugal). All filtration procedures and washes were carried out until dryness of the filters.
# (§2) Filter: Microcon 10 (Amicon)
# (§3) Centrifugation conditions: 9981×g, room temperature
# (§4) Washing steps: 2×, each with 150 μl of 0.9% NaCl in H2O, 4° C.
# (§5) Ultrafiltration and analysis of the filtrate were followed by washing steps and the liberation of the ligand (the active chemical substance) from the protein-ligand complex retained on the filter by treatment with 200 μl of water/methanol/TFA (49.5/49.5/1) at room temperature.
# (§6) The blind sample (without thrombin) was treated analogously in all steps so that a comparison of the filtrates was possible. The filtrates obtained in all steps were dried by means of a speed-VAC concentrator, and later dissolved in the corresponding HPLC flow agent of defined amount applying ultrasound and agitation.
# Identification of the ligands was accomplished by analytic HPLC: stationary phase Hypersil C 18 BDS, 3 μm, 150*0.3 mm, Fusica (LC Packings)—mobile phase: acetonitrile/water/TFA (35/65/0.01), isocratic, 5 μL/min, λ=[…].
# The trypsin inhibitors of 3-amidinophenylalanine represented in the following by their structural formulae, were used as chemical substances, and the serine protease trypsin as target:
# The experiments were performed as described in Example 1.
# Thrombin [2] = biological target: T1, Thrombin; conditions: thrombin inhibitor CRC 220 of Behringwerke; cited from earlier work
# serine protease thrombin = serine protease thrombin (Homo sapiens, UniProt P00734); assay: Ultrafiltration target-binding test of substance library with thrombin, HPLC of filtrates (Example 1); conditions: 10 μmol/l each substance, 5 μmol/l thrombin, 1 hour room temperature
# Description: As a target, the serine protease thrombin was chosen.
# The examined assays were of the following composition:
# as §1, §2, §3, §4, §5, §6
# Identification of the ligands was accomplished by analytic HPLC: stationary phase Hypersil C 18 BDS, 3 μm, 150*0.3 mm, Fusica (LC Packings)—mobile phase: acetonitrile/water/TFA (35/65/0.01), isocratic, 5 μL/min, λ=[…]. […]
SMILES,Ki (Thrombin [1]) [µmol/L],Ki (Trypsin) [µmol/L],"1st Wash (serine protease trypsin; Sample 261, without trypsin) [µmol/L]","2nd Wash (serine protease trypsin; Sample 261, without trypsin) [µmol/L]","Filtrate (serine protease trypsin; Sample 261, without trypsin) [µmol/L]","Liberation (serine protease trypsin; Sample 261, without trypsin) [µmol/L]","1st Wash (serine protease trypsin; Sample 262, trypsin 50 μmol/l) [µmol/L]","2nd Wash (serine protease trypsin; Sample 262, trypsin 50 μmol/l) [µmol/L]","Filtrate (serine protease trypsin; Sample 262, trypsin 50 μmol/l) [µmol/L]","Liberation (serine protease trypsin; Sample 262, trypsin 50 μmol/l) [µmol/L]",Ki (Thrombin [2]) [nM],Binding to target thrombin (difference between main experiment and blind sample) (serine protease thrombin)
CS(=O)(=O)N1CCN(C(=O)C(Cc2cccc(C(=N)N)c2)NS(=O)(=O)c2ccc3ccccc3c2)CC1 (stereo not shown) [Substance 6],0.0021,0.067,0.71,0.05,7.44,0.01,0.23,0.15,0.67,6.09,,
COc1cc(C)c(S(=O)(=O)N[C@@H](CC(=O)O)C(=O)N[C@H](Cc2ccc(C(=N)N)cc2)C(=O)N2CCCCC2)c(C)c1C [CRC 220],,,,,,,,,,,2.5,
Cl.Clc1cccc(Cl)c1NC1=NCCN1 [clonidin-HCL],,,,,,,,,,,,not an inhibitor
CCOC(=O)C1CCN(C(=O)C(Cc2cccc(C(=N)N)c2)NS(=O)(=O)c2ccc3ccccc3c2)CC1 (stereo not shown) [Substance 10],0.36,0.02,0.02,0.0013,0.05,0.0011,0.0058,0.0012,0.02,0.53,,
